Experimental data as given in patent publication US8470772B2, “Leptin agonist and methods of use” (Temple University—Of The Commonwealth System of Higher …, priority 2008, dated 2013).
Starred links: 1 amine or outer side, 2 acyl side, 3 side chain; linkers in the order of their positions; H or OH if unused. Non-standard residues stand in square brackets, D forms with d. No end group written: not given here. *: point of attachment. βGlcAc4 = CC(=O)OC[C@H]1O[C@@H](*)[C@H](OC(C)=O)[C@@H](OC(C)=O)[C@@H]1OC(C)=O; Tyr(Me) = O-methyl Tyr, COc1ccc(C[C@H](N[*:1])C(=O)[*:2])cc1; Tyr(3,5-I2) = N[C@@H](Cc1cc(I)c(O)c(I)c1)C(=O)O; dGla = N[C@H](CC(C(=O)O)C(=O)O)C(=O)O; Dap = NC[C@H](N)C(=O)O; βAla = NCCC(=O)O

Experiments:
MCF-7 cells = test: MCF-7 cell stimulation (cell growth) assay, cell counts by trypan blue exclusion; format: cell-based, human; conditions: for agonistic activity on MCF-7 cells: without leptin; for MCF-7 cell count increase: no leptin; for Relative stimulation (%) of MCF-7 cells, No leptin added: no exogenous leptin; for reversal of leptin-induced cell stimulation: leptin present; for antagonistic activity on leptin-induced MCF-7 cell proliferation: in the presence of exogenous leptin
Text: (§1) For the evaluation of the biological activity of the synthesized leptin Site III peptide fragments, human cell lines were selected in which the ObR expression level is known. Two ObR-positive human cell models were used: MCF-7 breast cancer cells and DU-45 prostate cancer cells. Both cell lines express ObR, and leptin and leptin analogues stimulate their growth (C. Garofalo, et al., Clin. Cancer Res., 2004, 10, 6466-6475; C. Garofalo, et al., Clin. Cancer Res., 2006, 12, 1447-1453). Normal mammary epithelial MCF-10 cells lacking ObR were used as a negative control (X. Hu, et al., J. Natl. Cancer Inst., 2002, 94, 1704-1711).
Biological activity of the Site III peptides was assayed as follows. MCF-7 cells were stimulated with 6 nM full-sized leptin. The smaller leptin fragments and analogs were added to the cell culture at a concentration of 10 nM, 100 nM or 1 μM. Leptin at […] concentration stimulated MCF-7 cell growth by approximately 40%, in line with previous observations (C. Garofalo, et al., Clin. Cancer Res., 2004, 10, 6466-6475). All Site III peptides bound to the extracellular domain of ObR as documented by dot-blot or Western-blot analysis. […] In fact, it reversed leptin induced stimulation of MCF-7 cells at as low as 10 nM peptide concentration, with an additional 50% reduction in cell counts at 1 μM. When the assay was run at a more reliably measurable 1 μM peptide concentration, a consistent 6% decrease in cell numbers could be observed compared to the leptin only samples. In summary, in the presence of exogenously added full-sized leptin these assays verified the strong antagonist activity of the Site III Ala,Ala mutant.
(§2) The cell stimulation activity of the Site III peptides was assayed as follows. Human leptin was purchased from R&D Systems and used at a concentration of 100 ng/mL (approximately 6 nM). MCF-7 and DU-45 cells naturally expressing ObR were grown in a standard medium DMEM:F12 plus 5% fetal bovine serum. MCF-10 was grown in serum-free mammalian epithelial growth medium supplemented with 100 ng/mL cholera toxin. Seventy percent confluent cultures were synchronized in serum-free medium (DMEM plus 10 μM FeSO4, plus 0.5% albumin) for 24 h and then treated with leptin and/or peptides (different doses) for 5 days. Cell counts before and after treatment were determined by counting the cells using trypan blue exclusion. All assays were conducted in triplicate and repeated at least twice.

DU-45 cells = test: DU-45 cell stimulation (proliferation) assay; format: cell-based, human
Text: as §1
as §2, with “All assays were conducted in triplicate and repeated at least twice.” left out

MCF-10 cells = test: MCF-10 control cell proliferation assay (cells lacking ObR); format: cell-based, human; conditions: for effect on the proliferation of MCF-10 cells: control cell line lacking ObR
Text: as §1, §2

[1] = tested on: astrocytes, brain capillary endothelial cells; test: In vitro model of blood-brain-barrier penetration (Transwell cell layers); format: in vitro ADME, human; conditions: 0.1 mM peptide in upper compartment
Text: To confirm the ability of the E1 peptides to cross the blood-brain barrier, penetration of the protected (E1Ac) and free (E1Free) glycopeptides across confluent layers of astrocytes, brain endothelial cells, or a double layer of these two cell types was examined, in comparison with the Site III Ala,Ala non-glycosylated analog.
A confluent monolayer of human astrocytes or brain capillary endothelial cells, or a dual layer of both cell types (astrocytes first, followed by endothelial cells) were grown at 37° C. on polycarbonate filters (Costar, Transwell, 0.4 μm) that were pretreated with collagen. Under these conditions, the endothelial cells retain the characteristics of the blood-brain-barrier, which include complex tight junctions, low rates of pinocytosis and low enzyme levels (S. Lundquist, et al., Pharm. Res., 2002, 19, 976-981). A 0.1 mM solution of each of E1Ac, E1Free or Site III Ala,Ala was added to the upper compartment of the Transwell plates. The plates were then placed back in the incubator and samples were taken from the bottom compartments at 0, 5, 10, 30, and 120 minute intervals. The identity and quantity of peptides that had penetrated through the cell layers were subsequently analyzed by RP-HPLC and MALDI-MS.

ObR extracellular domain = target: T1, ObR extracellular domain (Homo sapiens, UniProt P48357); test: Dot-blot and ELISA-type solid-phase binding assay; conditions: dot-blot, Western-blot or ELISA; 10 and 20 μg peptide load in ELISA
T1 construct: human IgG Fc-conjugated ObR extracellular domain (R&D Systems); purchased R&D Systems
T1 sequence (P48357 22-839 limits assumed): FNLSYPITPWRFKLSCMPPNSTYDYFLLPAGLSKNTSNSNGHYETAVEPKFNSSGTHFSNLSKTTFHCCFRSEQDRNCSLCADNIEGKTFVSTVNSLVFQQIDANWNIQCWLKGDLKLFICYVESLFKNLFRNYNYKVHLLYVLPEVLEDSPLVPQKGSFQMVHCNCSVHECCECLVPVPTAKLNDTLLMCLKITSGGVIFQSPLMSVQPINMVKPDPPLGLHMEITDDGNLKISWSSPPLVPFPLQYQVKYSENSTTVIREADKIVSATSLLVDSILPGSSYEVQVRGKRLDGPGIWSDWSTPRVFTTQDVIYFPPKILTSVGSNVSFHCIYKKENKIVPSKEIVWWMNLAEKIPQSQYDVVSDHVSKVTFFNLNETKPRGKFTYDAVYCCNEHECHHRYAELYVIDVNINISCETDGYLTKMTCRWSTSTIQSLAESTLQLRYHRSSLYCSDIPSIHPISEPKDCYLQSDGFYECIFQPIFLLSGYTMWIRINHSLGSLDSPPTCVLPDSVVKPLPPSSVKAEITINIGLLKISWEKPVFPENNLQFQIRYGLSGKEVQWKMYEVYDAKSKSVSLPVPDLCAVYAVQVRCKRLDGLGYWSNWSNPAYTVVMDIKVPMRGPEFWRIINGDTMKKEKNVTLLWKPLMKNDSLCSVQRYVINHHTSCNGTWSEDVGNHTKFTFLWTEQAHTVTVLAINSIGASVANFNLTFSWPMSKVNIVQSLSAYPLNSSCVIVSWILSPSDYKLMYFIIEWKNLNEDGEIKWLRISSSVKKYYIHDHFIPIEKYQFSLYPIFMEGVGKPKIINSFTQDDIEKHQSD
Experimental: For dot-blot and ELISA assays, the leptin fragments were dissolved in electroblot transfer buffer (25 mM Tris and […] buffer containing 20% methanol) and were applied to either a nitrocellulose membrane or dried upon ELISA plates (Otvos, L., Jr., and Szendrei, G. I. (1996) Enzyme-linked immunosorbent assay of peptides. In: Neuropeptide Protocols (G. B. Irvine and C. H. Williams, eds.). Humana Press, Totowa, N.J., pp. 269-275). The solid surfaces were blocked with 5% BSA in a PBS-0.5% Tween 20 buffer (PBST) for 3 hours at room temperature and were subsequently incubated with 10 μg/mL solution of human IgG Fc-conjugated ObR extracellular domain (R&D Systems) dissolved in Tris-buffered saline-0.1% Tween 20 buffer (TBST) containing 1% bovine serum albumin (BSA) for 1 hour. A monoclonal goat antibody (Santa Cruz Biotechnology), specific for the N-terminus of human ObR, was added to the assay mixture, followed by addition of a horseradish peroxidase(HRP)-conjugated anti-goat IgG donkey antibody for the dot-blot assay, and HRP-conjugated anti-goat Fc mouse antibody for ELISA assay (used at a 1:15,000 dilution in PBST and 1% BSA). Between reagents, the solid surfaces were washed extensively with PBST. After washing with PBST, the membrane was treated with a chemiluminescence luminol oxidizer (NEN) for 1 min. The resultant chemiluminescence was exposed to a X-Omat blue XB-1 film (Kodak) for 10 seconds, and the exposed film was developed. The ELISA was developed using an HRP ELISA kit including tetramethylbenzidine as a substrate and sulfuric acid as a stop solution. Optical absorbance values were read at 490 nm using a microplate reader.

**Q.** What does the source list for SGYSTEVVALSRLQGS [Site III 117-132]?
**A.** reduction in leptin-induced cell growth (MCF-7 cells; 1 μM peptide, in the presence of 10 nM leptin): 21%; agonistic activity on MCF-7 cells (MCF-7 cells): did not noticeably influence the cell growth; effect on the proliferation of DU-45 cells (DU-45 cells): no effect; effect on the proliferation of MCF-10 cells (MCF-10 cells; listed as Site III peptide): did not demonstrate a major effect; effect on the proliferation of MCF-10 cells (MCF-10 cells; listed as site III fragment): no effect

**Q.** Which “earliest time point at which peptide was detected in the bottom compartment” value [1] does the source give for “SGYAAEVVALSRLQGS-NH2 [Site III Ala,Ala, Ser-Gly-Tyr-Ala-Ala-Glu-Val-Val-Ala-Leu-Ser-Arg-Leu-Gln-Gly-Ser]” here?
**A.** The value was 30 min.

**Q.** What does the source list for “Tyr(I2)-Serβ(GlcAc4)-Thr-Glu-Val-Val-Ala-Leu-Ser-Arg-Leu-Dap(Ac) ([Tyr(3,5-I2)]S(βGlcAc4)TEVVALSRL[Dap](Ac)-NH2) [E1Ac]”?
**A.** MCF-7 cell count increase (MCF-7 cells; 100 nM peptide): 54%; further increase of leptin-induced cell stimulation (MCF-7 cells; 1000 nM peptide, in the presence of 6 nM leptin): 17%; MCF-7 cell count increase (MCF-7 cells; 1000 nM peptide): 101%; overall agonist character on cells expressing ObR (MCF-7 cells; in the presence and absence of leptin): full agonists; activity on MCF-10 normal mammary epithelial cells (MCF-10 cells; 100 nM and 1000 nM peptide): inactive; binding to the extracellular domain of ObR (ObR extracellular domain): bound

**Q.** With “Leptin: Human leptin purchased from R&D Systems; full-length sequence SEQ ID NO:1” as the substance, how does the “stimulation of MCF-7 cell growth” value (MCF-7 cells; leptin at 10 nM) read?
**A.** Its value is “approximately 40%”.

**Q.** For “Gly-Tyr(I2)-Ser-Thr-Glu-Val-Va1-βAla-Leu-Ser-Arg-Leu (G[Tyr(3,5-I2)]STEVV[βAla]LSRL-NH2) [A4]”, which “Relative stimulation (%) of MCF-7 cells, No leptin added” value (MCF-7 cells; 1 μM peptide) is on record?
**A.** The value was “+102%”.

**Q.** For “pyrrhocoricin: negative control antibacterial peptide with Pro-Arg-Pro repeats, equal in size with the leptin fragments (VDKGSYLPRPTPPRPIYNRN) [reference compound]”, which “binding to the extracellular domain of ObR” value (ObR extracellular domain) is on record?
**A.** The value was “did not bind”.

**Q.** With “Gly-Tyr(I2)-Ser-Thr-D-Gla-Val-Val-D-Ala-Leu-Ser-Arg-Leu [F2]” as the substance, how does the “reversal of leptin-induced cell stimulation” value (MCF-7 cells; 1 μM peptide) read?
**A.** Its value is 15%.

**Q.** And the “Relative stimulation (%) of MCF-7 cells, With 10 nM leptin” value (MCF-7 cells; 1 μM peptide, with 10 nM leptin)?
**A.** Its value is −15%.

**Q.** What about the “antagonistic activity on leptin-induced MCF-7 cell proliferation” value (“antagonistic activity” for short) (MCF-7 cells) of the same substance?
**A.** The value was “antagonists”.

**Q.** What about the “agonistic activity on MCF-7 cells” value (MCF-7 cells) of the same substance?
**A.** The value was “agonists”.

**Q.** With “Tyr(Me)-Ser-Thr-Glu-Val-Val-βAla-Leu-Ser-Arg-Leu ([Tyr(Me)]STEVV[βAla]LSRL-NH2) [A11]” as the substance, how does the “Relative stimulation (%) of MCF-7 cells, No leptin added” value (MCF-7 cells; 1 μM peptide) read?
**A.** The value was “+19%”.

**Q.** What about the “antagonistic activity” value (MCF-7 cells) of the same substance?
**A.** Its value is “basically inactive”.

**Q.** With “Tyr(Me)-Ser-Thr-D-Gla-Val-Val-D-Ala-Leu-Ser-Arg-Leu ([Tyr(Me)]ST[dGla]VV[dA]LSRL-NH2) [D12]” as the substance, how does the “reversal of leptin-induced cell stimulation” value (MCF-7 cells; 1 μM peptide) read?
**A.** The value was 43%.

**Q.** And the “antagonistic activity” value (MCF-7 cells)?
**A.** The value was “antagonists”.

**Q.** And the “agonistic activity on MCF-7 cells” value (MCF-7 cells)?
**A.** The value was “agonists”.
